# Source: patent US8877940B2, “Antibiotic tolerance inhibitors” (Institut National de la Recherche Scientifique, priority 2011, dated 2014)
# Assays:
# [1] = tested on: 4-hydroxy-2-alkylquinoline (HAQ) levels, P. aeruginosa PA14 (MvfR regulon); assay type: cell-based, Pseudomonas aeruginosa; details: for activity (impacts on HAQ and pyocyanin levels), structure-activity comparison / HAQ production / HAQ inhibition: tested at 10 μM; for concentration at which compound was effective (decreased HAQ levels), as low as: among the seventeen HAQ-lowering hits
# [2] = tested on: ΔmvfR mutant constitutively expressing the pqsABCD genes; test: HAQ production in ΔmvfR mutant constitutively expressing pqsABCD (LC/MS); assay type: cell-based, Pseudomonas aeruginosa; details: 100 μM inhibitor
# Description: However, since these compounds diminish or abolish P. aeruginosa HAQ production, it is possible that they target either the MvfR protein itself or enzymes in the pqs operon that are required for HAQ synthesis. To further understand the target(s) of these compounds, a ΔmvfR mutant constitutively expressing the pqsABCD genes was used. This strain is capable of synthesizing HHQ, HQNO, PQS and DHQ independently of MvfR. […] Since PqsA and PqsD are necessary and sufficient for DHQ production, it is possible that these inhibitors target either PqsB or PqsC enzymes, which are required for HHQ and PQS production.
# [3] = tested on: pyocyanin, an MvfR-regulated virulence factor, P. aeruginosa PA14; test: Quantification of pyocyanin (OD520nm of chloroform-extracted cultures); assay type: cell-based, Pseudomonas aeruginosa; details: for pyocyanin levels: twelve of the 17 HAQ-lowering hits, vs control
# Experimental: Pyocyanin levels were determined by measuring OD520nm of chloroform-extracted cultures.
# Compounds were tested at various concentrations for their impact on 4-hydroxy-2-alkylquinoline (HAQ) levels, including the MvfR ligands 4-hydroxy-2-heptylquinoline (HHQ) and 3,4-dihydroxy-2-heptylquinoline (PQS), as well as 2-n-heptyl-4-hydroxyquinoline-N-oxide (HQNO) and 2,4-dihydroxyquinoline (DHQ) (FIGS. 2A-2C). Levels of the phenazine, pyocyanin, an MvfR-regulated virulence factor, were also determined.
# [4] = tested on: Raw264.7 macrophage cells infected with PA14; test: Viability of PA14-infected macrophage cells (MTT assay); assay type: cell-based; details: PA14 MOI 100, 3 h, 100 μM compound
# Experimental: Raw264.7 macrophage cells were cultured in Dulbecco's modified eagles medium (DMEM) containing 10% FCS, 2 mM glutamine and antibiotic-antimycotic solutions. Before infections cells were washed with PBS (without Mg2+ and Ca2+) and antibiotic-free medium was used for infections. The cells were infected with PA14 and PA14 isolates grown in the presence of compounds at an MOI of 100 for 3 h at 37° C. in a 5% CO2 atmosphere. During infections cells were incubated with 100 μM of compounds as well. After 3 hours of PA14 infection, the cells were washed and incubated with DMEM medium containing polymixin B and gentamicin in order to kill the extracellular bacteria. The viability of Raw264.7 was assessed using the MTT assay, which detects the early sign of eukaryotic cell death. The formazan crystals formed in viable, metabolically active cells were dissolved by the addition of 100 μl DMSO and optical density was measured at 570 nm in a microplate reader.
# In order to determine whether or not the potent inhibitors are cytotoxic in eukaryotes, Raw 264.7 macrophage cells were exposed to selected compounds. No significant cytotoxicity was observed following compound exposure for 3 hours compared to the DMSO solvent control (FIG. 6A). The cytotoxicity of the macrophage cells was also determined when infected with PA14 bacterial cells alone or in the presence of the compounds.
# [5] = very low concentrations, nanomolar range
smiles,measurement,setting,value
"N#Cc1ccc(NC(=O)CSc2nc3ccccc3[nH]2)cc1 [Compound B1, 2-((1H-benzo[d]imidazol-2-yl)thio)-N-(4-cyanophenyl)acetamide]","activity (impacts on HAQ and pyocyanin levels), structure-activity comparison",[1],active compounds
same,HAQ levels compared to the solvent control,[2],intermediate phenotype
same,pyocyanin levels,[3],less than half of the control
"CSc1cccc(NC(=O)CSc2nc3ccccc3[nH]2)c1 [Compound M4, 2-((1H-benzo[d]imidazol-2-yl)thio)-N-(3-(methylthio)phenyl)acetamide]","concentration at which compound was effective (decreased HAQ levels), as low as",[1],10 µM
same,HAQ production / HAQ inhibition,[1],improved HAQ inhibition
same,DHQ level,[2],increased
same,HHQ and HQNO levels,[2],reduced
"O=C(CSc1nc2ccccc2[nH]1)Nc1ccc(Cl)c(Cl)c1 [Compound M22, 2-((1H-benzo[d]imidazol-2-yl)thio)-N-(3,4-dichlorophenyl)acetamide]","activity (impacts on HAQ and pyocyanin levels), structure-activity comparison",[1],decreased the activity as compared to M26
"CCc1ccc(NC(=O)CSc2nc3ccc(C)cc3[nH]2)cc1 [Compound M23, N-(4-ethylphenyl)-2-((6-methyl-1H-benzo[d]imidazol-2-yl)thio)acetamide]","activity (impacts on HAQ and pyocyanin levels), structure-activity comparison",[1],moderately active
same,DHQ level,[2],increased
same,HHQ and HQNO levels,[2],reduced
same,pyocyanin levels,[3],less than half of the control
"COc1ccc2nc(SCC(=O)Nc3ccc(Cl)c(Cl)c3)[nH]c2c1 [Compound M24, N-(3,4-dichlorophenyl)-2-((6-methoxy-1H-benzo[d]imidazol-2-yl)thio)acetamide]","activity (impacts on HAQ and pyocyanin levels), structure-activity comparison",[1],decreased the activity
"O=C(CSc1nc2ccccc2[nH]1)Nc1ccc(Cl)cc1 [Compound M26, 2-((1H-benzo[d]imidazol-2-yl)thio)-N-(4-chlorophenyl)acetamide]","concentration at which compound was effective (decreased HAQ levels), as low as",[1],10 µM
same,"activity (impacts on HAQ and pyocyanin levels), structure-activity comparison",[1],active compounds
same,DHQ level,[2],increased
same,HHQ and HQNO levels,[2],reduced
same,pyocyanin levels,[3],less than half of the control
"Cc1ccc2nc(SCC(=O)Nc3ccc(Br)cc3)[nH]c2c1 [Compound M27, N-(4-bromophenyl)-2-((6-methyl-1H-benzo[d]imidazol-2-yl)thio)acetamide]",reduction of PA14-induced cytotoxicity,[4],effectively reduced cytotoxicity
same,"concentration at which compound was effective (decreased HAQ levels), as low as",[1],10 µM
same,"activity (impacts on HAQ and pyocyanin levels), structure-activity comparison",[1],more active than M55
same,DHQ level,[2],increased
same,HHQ and HQNO levels,[2],reduced
same,pyocyanin levels,[3],less than half of the control
"COc1ccc(NC(=O)CSc2nc3ccc([N+](=O)[O-])cc3[nH]2)c(OC)c1 [Compound M34, N-(2,4-dimethoxyphenyl)-2-((6-nitro-1H-benzo[d]imidazol-2-yl)thio)acetamide]","concentration at which compound was effective (decreased HAQ levels), as low as",[1],10 µM
same,"activity (impacts on HAQ and pyocyanin levels), structure-activity comparison",[1],quite active
same,HAQ levels compared to the solvent control,[2],do not significantly alter HAQ levels
same,pyocyanin levels,[3],less than half of the control
"O=C(CSc1nc2ccccc2[nH]1)Nc1ccc([N+](=O)[O-])cc1 [Compound M45, 2-((1H-benzo[d]imidazol-2-yl)thio)-N-(4-nitrophenyl)acetamide]","activity (impacts on HAQ and pyocyanin levels), structure-activity comparison",[1],did not improve the activity
"COc1ccccc1NC(=O)CSc1nc2ccccc2[nH]1 [Compound M46, 2-((1H-benzo[d]imidazol-2-yl)thio)-N-(2-methoxyphenyl)acetamide]","activity (impacts on HAQ and pyocyanin levels), structure-activity comparison",[1],did not improve the activity
"CC(C)c1ccc(NC(=O)CSc2nc3ccccc3[nH]2)cc1 [Compound M49, 2-((1H-benzo[d]imidazol-2-yl)thio)-N-(4-isopropylphenyl)acetamide]","activity (impacts on HAQ and pyocyanin levels), structure-activity comparison",[1],more active compound
"O=C(CSc1nc2ccc([N+](=O)[O-])cc2[nH]1)Nc1ccc(Cl)cc1 [Compound M51, N-(4-chlorophenyl)-2-((6-nitro-1H-benzo[d]imidazol-2-yl)thio)acetamide]","activity (impacts on HAQ and pyocyanin levels), structure-activity comparison",[1],most active
same,HAQ levels compared to the solvent control,[2],intermediate phenotype
"COc1ccccc1NC(=O)CSc1nc2ccc([N+](=O)[O-])cc2[nH]1 [Compound M53, N-(2-methoxyphenyl)-2-((6-nitro-1H-benzo[d]imidazol-2-yl)thio)acetamide]","activity (impacts on HAQ and pyocyanin levels), structure-activity comparison",[1],not very active
same,HAQ levels compared to the solvent control,[2],do not significantly alter HAQ levels
"O=C(CSc1nc2ccccc2[nH]1)Nc1ccc(Br)cc1 [Compound M55, 2-((1H-benzo[d]imidazol-2-yl)thio)-N-(4-bromophenyl)acetamide]","activity (impacts on HAQ and pyocyanin levels), structure-activity comparison",[1],active compounds
same,DHQ level,[2],increased
same,HHQ and HQNO levels,[2],reduced
"O=C(CSc1nc2ccccc2[nH]1)Nc1ccccc1 [Compound M56, 2-((1H-benzo[d]imidazol-2-yl)thio)-N-phenylacetamide]",HAQ production / HAQ inhibition,[1],little impact
same,pyocyanin production,[3]; tested at 10 μM,little impact
"O=C(CSc1nc2ccc([N+](=O)[O-])cc2[nH]1)Nc1ccc(OC(F)(F)F)cc1 [Compound M58, 2-((6-nitro-1H-benzo[d]imidazol-2-yl)thio)-N-(4-(trifluoromethoxy)phenyl)acetamide]","activity (impacts on HAQ and pyocyanin levels), structure-activity comparison",[1],most active
same,HAQ levels compared to the solvent control,[2],intermediate phenotype
"O=C(CSc1nc2ccc([N+](=O)[O-])cc2[nH]1)Nc1ccc(I)cc1 [Compound M59, N-(4-iodophenyl)-2-((6-nitro-1H-benzo[d]imidazol-2-yl)thio)acetamide]","activity (impacts on HAQ and pyocyanin levels), structure-activity comparison",[1],most active
same,reduction / inhibition of HAQs,[1]; [5],considerably inhibited
same,HAQ levels compared to the solvent control,[2],intermediate phenotype
same,reduction / inhibition of pyocyanin,[3]; [5],considerably inhibited
"COc1ccc(NC(=O)CSc2nc3ccc([N+](=O)[O-])cc3[nH]2)cc1 [Compound M61, N-(4-methoxyphenyl)-2-((6-nitro-1H-benzo[d]imidazol-2-yl)thio)acetamide]","activity (impacts on HAQ and pyocyanin levels), structure-activity comparison",[1],most active
same,HAQ levels compared to the solvent control,[2],do not significantly alter HAQ levels
"N#Cc1ccc(NC(=O)CSc2nc3ccc([N+](=O)[O-])cc3[nH]2)cc1 [Compound M62, N-(4-cyanophenyl)-2-((6-nitro-1H-benzo[d]imidazol-2-yl)thio)acetamide]",reduction of PA14-induced cytotoxicity,[4],effectively reduced cytotoxicity
same,"activity (impacts on HAQ and pyocyanin levels), structure-activity comparison",[1],most active
same,HAQ levels compared to the solvent control,[2],do not significantly alter HAQ levels
"O=C(CSc1nc2ccc(NC(=O)C(F)(F)F)cc2[nH]1)Nc1ccc(I)cc1 [Compound M63, 2,2,2-trifluoro-N-(2-((2-((4-iodophenyl)amino)-2-oxoethyl)thio)-1H-benzo[d]imidazol-6-yl)acetamide]","activity (impacts on HAQ and pyocyanin levels), structure-activity comparison",[1],inactive
"CC(=O)Nc1ccc2nc(SCC(=O)Nc3ccc(I)cc3)[nH]c2c1 [Compound M65, 2-((6-acetamido-1H-benzo[d]imidazol-2-yl)thio)-N-(4-iodophenyl)acetamide]","activity (impacts on HAQ and pyocyanin levels), structure-activity comparison",[1],inactive
